Where two headings read alike, the source gives them in different places. Blank lines part the entries; values can stand above or below the compound they belong to.
Columns and labels:
[1] = system: liver mitochondrial low Km ALDH; settings: Hart et al., cited from earlier work; for dose at which 50% ALDH inhibition (ID50) occurred: intraperitoneal (IP) administration
[2] = target: T1, rat liver mitochondrial low Km ALDH (Rattus norvegicus, UniProt P11884); assay: Liver aldehyde dehydrogenase determination in vivo after dosing rats; settings: for in vivo ALDH inhibition relative to comparators (in words): versus DETC-Me, disulfiram or other disulfiram metabolites; for ED50: rat, 8 h, read-out: dose required to inhibit 50% of the low Km ALDH
T1 construct: Mitochondria were isolated from the liver of untreated rats; from tissue; host or cells: liver mitochondria of male Sprague-Dawley derived rats
T1 sequence (P11884 20-519): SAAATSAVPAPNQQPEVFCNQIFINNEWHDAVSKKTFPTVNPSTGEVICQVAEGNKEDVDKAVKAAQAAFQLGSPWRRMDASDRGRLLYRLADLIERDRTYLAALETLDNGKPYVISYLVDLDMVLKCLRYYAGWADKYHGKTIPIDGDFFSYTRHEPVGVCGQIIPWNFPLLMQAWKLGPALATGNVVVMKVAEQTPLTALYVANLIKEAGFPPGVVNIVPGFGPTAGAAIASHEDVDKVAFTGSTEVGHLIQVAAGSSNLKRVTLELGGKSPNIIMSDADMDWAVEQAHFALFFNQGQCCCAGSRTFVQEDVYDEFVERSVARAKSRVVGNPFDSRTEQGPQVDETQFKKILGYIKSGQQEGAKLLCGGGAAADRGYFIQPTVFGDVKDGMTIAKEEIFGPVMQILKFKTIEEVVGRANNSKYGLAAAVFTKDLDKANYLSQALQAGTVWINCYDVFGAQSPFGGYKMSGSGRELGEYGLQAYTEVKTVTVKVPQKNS
Procedure: 1. Drug Doses. Doses of DETC-Me SO studied were 1.3 mg/kg, 2.6 mg/kg, 5.2 mg/kg, 10.3 mg/kg and 20.6 mg/kg.
2. Animals. Male Sprague Dawley derived rats weighing 200-400 g were used. The rats were bred from a resident colony maintained in the Animals Care Unit at the University of Kansas. Rats were maintained on a 12-hour light-dark cycle with access to food and water ad lib until the night before an experiment, at which time food was removed. Animals were fasted for 12 hours prior to drug administration.
3. Timing. In these in vivo studies, rats were fasted 12 hours before beginning the experiment. All experiments were carried out in the morning. Rats were treated with the doses of DETC-Me SO or DETC-Me described above, which were dissolved in polyethylene glycol 200. Eight hours later, the rats were anesthetized with carbon dioxide and then decapitated. The liver was quickly removed and the low Km aldehyde dehydrogenase determined. Each data point on FIG. 4 represents an average of four rats. Control rats were treated with […] only, and each control data point also represents an average of four rats.
4. Aldehyde Dehydrogenase Determination. The liver from drug-treated and control rats was homogenized in 0.25M sucrose and differential centrifugation was carried out to isolate the mitochondrial fraction. The mitochondria were solubilized with sodium deoxycholate, and mitochondrial low Km and total (high and low) aldehyde dehydrogenase activity determined by the method of S.O.C. Tottmar et al., cited above.

[3] = Plasma acetaldehyde determination after ethanol challenge; format: in vivo, rat; settings: male rats
Procedure: Rats maintained as described in Ex. 4, fasted for 18 hours, were given 10.3 mg/kg of the DETC-Me SO intraperitoneally, dissolved in polyethylene glycol 200 and then challenged eight hours later with a dose of ethanol (1 g/kg; 20% v/v) also administered intraperitoneally. The rats were anesthetized with phenobarbital 30 minutes after alcohol administration and blood was taken by aortic puncture, being drawn into a heparinized syringe. Plasma acetaldehyde was determined by the method of C.O.P. Eriksson et al., Anal. Biochem., 80, 116 (1977). Plasma concentrations were determined based on a standard curve obtained with known concentrations of acetaldehyde. Control rats were treated with 1 ml/kg of polyethylene glycol 200.

[4] = target: T1, rat liver mitochondrial low Km ALDH; assay: In vitro inhibition of rat liver mitochondrial low Km ALDH (isolated mitochondria incubation); format: biochemical
Procedure: 1. Drug Concentration. Concentrations of DETC-Me sulfoxide ("DETC-Me SO") studied were 0.2 μM, 2.0 μM, 20 μM and 200 μM. Concentrations of DDTC-Me SO studied were 0.5 μM, 2.5 μM, 10 μM, 25 μM, 50 μM and 100 μM.
2. Animal Liver Preparation. Male Sprague-Dawley derived rats weighing 200-400 g were anesthetized with carbon dioxide and then decapitated. The livers from untreated rats were homogenized in 0.25M sucrose and differential centrifugation carried out to isolate the mitochondrial fraction. The mitochodria were solubilized with sodium deoxycholate, and mitochondrial low Km ALDH activity determined by the method of S.O.C. Tottmar et al., Biochem. J., 135, 577 (1973).
3. In Vitro Incubation. Mitochondria were isolated from the liver of untreated rats as described in section (2) and resuspended in 0.1M phosphate buffer (pH=7.4). Incubations contained 2 mg of mitochondrial protein, to which was added DETC-Me SO or DDTC-Me SO in the concentrations described above. The DETC-Me SO or DDTC-Me SO was dissolved in ethanol and the incubations carried out for one hour. Control incubations contained ethanol alone.
4. Aldehyde Dehydrogenase Analysis. At the end of the incubation, the mitochondria were isolated by centrifugation, resuspended in 0.25M sucrose buffer and solubilized with deoxycholate. Low Km ALDH activity was determined by the method of S.O.C. Tottmar et al., cited above.

[5] = system: liver mitochondrial low Km ALDH; settings: Hart et al.; cited from earlier work

SMILES: CCN(CC)C(=S)SC [DDTC-Me, diethyldithiocarbamate-methyl ester]
dose at which 50% ALDH inhibition (ID50) occurred [1]: 15.5 mg/kg

in vivo ALDH inhibition relative to comparators (in words) [2]: substantially more potent | in vivo ALDH inhibition relative to comparators (in words) ([2]; listed as DETC-Me sulfoxide): about twice as effective | ED50 ([2]; male rats, intraperitoneal (IP), liver taken eight hours after dosing, FIG. 4): 3.6 mg/kg | in vitro activity as inhibitor of low Km ALDH (in words) [4]: extremely potent inhibitor | in vitro activity as inhibitor of low Km ALDH (in words) ([4]; listed as DETC-Me sulfoxide): active in vitro
SMILES: CCN(CC)C(=O)[S+](C)[O-] (stereo not drawn) [DETC-Me SO, S-Methyl-N,N-Diethylthiolcarbamate Sulfoxide]
plasma acetaldehyde ([3]; 10.3 mg/kg IP in polyethylene glycol 200, then 1 g/kg ethanol (20% v/v) IP, FIG. 5): approximately 900 μM | effect on plasma acetaldehyde after an ethanol challenge (in words) ([3]; 10.3 mg/kg IP, 1 g/kg ethanol IP): markedly increase plasma acetaldehyde

SMILES: CCN(CC)C(=O)SC [DETC-Me, S-Methyl-N,N-Diethylthiolcarbamate]
ED50 ([2]; ip): 6.5 mg/kg | in vitro inhibition of liver mitochondrial low Km ALDH (in words) [5]: not an effective in vitro inhibitor | potency as inhibitor of liver mitochondrial low Km ALDH relative to DDTC-Me, DDTC or disulfiram (in words) [1]: more potent inhibitor | dose at which 50% ALDH inhibition (ID50) occurred [1]: 6.5 mg/kg | inhibition at 200 µM ([4]; 1 h, read-out: inhibition of rat liver mitochondrial low Km ALDH): 8% | in vitro activity as inhibitor of low Km ALDH (in words) [4]: not

SMILES: CCN(CC)C(=S)SSC(=S)N(CC)CC [disulfiram, tetraethylthiuram disulfide]
dose at which 50% ALDH inhibition (ID50) occurred [1]: 56.2 mg/kg
